The values that follow come from patent publication US12139520B2 (priority 2020, dated 2024).

Test [1] addresses T1, hAMY3 receptor (Homo sapiens, UniProt O60896+P30988).
T1 sequence (P30988 25-474): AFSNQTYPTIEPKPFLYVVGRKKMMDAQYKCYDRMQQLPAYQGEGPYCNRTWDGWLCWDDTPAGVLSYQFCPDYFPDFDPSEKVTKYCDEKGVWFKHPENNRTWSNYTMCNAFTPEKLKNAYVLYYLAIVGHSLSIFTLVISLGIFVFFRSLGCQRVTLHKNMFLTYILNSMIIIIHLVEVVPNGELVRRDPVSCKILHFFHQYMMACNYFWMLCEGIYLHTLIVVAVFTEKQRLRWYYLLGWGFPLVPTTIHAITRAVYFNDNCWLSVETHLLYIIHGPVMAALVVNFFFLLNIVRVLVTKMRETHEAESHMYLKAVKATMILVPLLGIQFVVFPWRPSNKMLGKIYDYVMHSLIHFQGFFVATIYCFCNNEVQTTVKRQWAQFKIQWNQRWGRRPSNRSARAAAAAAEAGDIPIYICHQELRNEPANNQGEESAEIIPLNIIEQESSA
T1 sequence (O60896 24-148 partner): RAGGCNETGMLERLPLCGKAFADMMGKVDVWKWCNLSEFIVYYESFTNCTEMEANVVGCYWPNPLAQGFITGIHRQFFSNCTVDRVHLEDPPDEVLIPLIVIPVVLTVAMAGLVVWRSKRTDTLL
Nature of the test: cAMP assay for in vitro receptor activation, hAMY3-R. The test is classed as cell-based. The settings on record: cAMP assay, hAMY3 receptor; read-out: hAMY3R EC50. In outline:
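Monoclonal cell line stably overexpressing human AMY3 receptor, 2000 cells/well in DPBS with 0.05% casein and 0.5 mM IBMX. Stimulated 30 min at room temperature with graded compound doses, human amylin as positive control. cAMP accumulation read by TR-FRET after one hour.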
For orientation: Changes in cAMP serve as a functional read-out for many G protein-coupled receptors.

The target in test [2] is hAM1 receptor (Homo sapiens, UniProt O60895+Q16602). Nature of the test: cAMP assay for in vitro receptor activation, hAM1-R. The test is classed as cell-based. The following applies: cAMP assay, hAM1 receptor; read-out: hAM1R EC50. In outline: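 Read-out is intracellular cAMP as a measure of receptor activation. Cells stably overexpressing hAM1 were subcloned to a monoclonal line, then thawed and seeded at 8000 cells/well in DPBS with 0.05% casein and the phosphodiesterase inhibitor IBMX at 0.5 mM.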

The structures appear in SMILES notation. Numbered stars: 1 amine (or outer) side, 2 acyl side, 3 side chain; on linkers, the order of the positions; unused ones are H or OH. Bridge positions count the residues as written; N and C are the ends. Square brackets hold non-standard residues; d marks the D form. Side chains are listed from the residue outwards. Peptide text beside a SMILES is read from it. * marks the point of attachment. C20 diacid = O=C(O)CCCCCCCCCCCCCCCCCCC(=O)*; γGlu = O=C(O)[C@H](CCC(=O)[*:2])N[*:1]; Hyp = O=C(O)[C@@H]1C[C@@H](O)CN1; AEEA = NCCOCCOCC(=O)O

Chain of hAM1 receptor (Q16602 23-461): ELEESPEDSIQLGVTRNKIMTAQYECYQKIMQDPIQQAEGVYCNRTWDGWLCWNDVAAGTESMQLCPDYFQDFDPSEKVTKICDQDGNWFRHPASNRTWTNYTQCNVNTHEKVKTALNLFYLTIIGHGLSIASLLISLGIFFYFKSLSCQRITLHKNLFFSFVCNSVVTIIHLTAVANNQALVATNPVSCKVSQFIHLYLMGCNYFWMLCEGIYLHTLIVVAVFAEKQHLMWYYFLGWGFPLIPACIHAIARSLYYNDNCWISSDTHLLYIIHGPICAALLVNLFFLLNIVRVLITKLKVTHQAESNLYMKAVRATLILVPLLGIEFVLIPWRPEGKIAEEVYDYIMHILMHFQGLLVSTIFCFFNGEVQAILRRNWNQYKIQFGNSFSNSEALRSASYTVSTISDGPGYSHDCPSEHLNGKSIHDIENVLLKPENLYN
Chain of hAM1 receptor (O60895 43-175 partner): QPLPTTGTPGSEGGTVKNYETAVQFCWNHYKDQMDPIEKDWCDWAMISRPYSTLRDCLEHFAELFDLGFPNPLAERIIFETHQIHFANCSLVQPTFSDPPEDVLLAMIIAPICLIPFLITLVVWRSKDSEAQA

A word on the EC50: it is the concentration giving half of the maximal effect. In the case of `CC[C@H](C)[C@H](NC(=O)[C@H](CCC(N)=O)NC(=O)[C@H](Cc1c[nH]cn1)NC(=O)[C@H](C)NC(=O)[C@H](CC(C)C)NC(=O)[C@H](CCCNC(=N)N)NC(=O)[C@H](CCC(N)=O)NC(=O)[C@@H](NC(=O)[C@@H](NC(=O)[C@@H]1CSSC[C@H](NC(=O)[C@H](CCCCN)NC(=O)CC[C@H](NC(=O)CCCCCCCCCCCCCCCCCCC(=O)O)C(=O)O)C(=O)N[C@@H](CC(N)=O)C(=O)N[C@@H]([C@@H](C)O)C(=O)N[C@@H](C)C(=O)N[C@@H]([C@@H](C)O)C(=O)N1)[C@@H](C)O)C(C)C)C(=O)N[C@@H](CCC(N)=O)C(=O)N[C@@H](CCC(N)=O)C(=O)N[C@@H](Cc1ccccc1)C(=O)N[C@H](C(=O)N[C@@H](CC(=O)O)C(=O)N[C@@H](CCCCN)C(=O)N[C@@H](CC(=O)O)C(=O)N[C@@H](CCCCN)C(=O)N[C@@H](CC(=O)O)C(=O)N[C@@H](CC(N)=O)C(=O)N[C@H](C(=O)N[C@@H](C)C(=O)N1CCC[C@H]1C(=O)N1CCC[C@H]1C(=O)N[C@H](C(=O)N[C@@H](CC(N)=O)C(=O)N[C@H](C(=O)NCC(=O)N[C@@H](CO)C(=O)N[C@@H](CC(N)=O)C(=O)NCC(=O)N1C[C@H](O)C[C@H]1C(N)=O)C(C)C)[C@@H](C)O)C(C)C)[C@@H](C)O` [compound 35] ({C20 diacid-γGlu}-KCNTATCTVQRLAHQIQQFTDKDKDNVAPPTNVGSNG[Hyp]-NH2; disulfide 2-7), the EC50 in test [1] is 0.009 nM; in test [2] it was more than 5000 nM.
As for `CC[C@H](C)[C@H](NC(=O)[C@H](CCC(N)=O)NC(=O)[C@H](Cc1c[nH]cn1)NC(=O)[C@H](C)NC(=O)[C@H](CC(C)C)NC(=O)[C@H](CCCNC(=N)N)NC(=O)[C@H](C)NC(=O)[C@@H](NC(=O)[C@@H](NC(=O)[C@@H]1CSSC[C@H](NC(=O)[C@H](CCCCN)NC(=O)CC[C@H](NC(=O)CCCCCCCCCCCCCCCCCCC(=O)O)C(=O)O)C(=O)N[C@@H](CC(N)=O)C(=O)N[C@@H]([C@@H](C)O)C(=O)N[C@@H](C)C(=O)N[C@@H]([C@@H](C)O)C(=O)N1)[C@@H](C)O)C(C)C)C(=O)N[C@@H](Cc1ccc(O)cc1)C(=O)N[C@@H](CCC(N)=O)C(=O)N[C@@H](Cc1ccccc1)C(=O)N[C@H](C(=O)N[C@@H](CC(=O)O)C(=O)N[C@@H](CCCCN)C(=O)N[C@@H](CC(=O)O)C(=O)N[C@@H](CCCCN)C(=O)N[C@@H](CC(=O)O)C(=O)N[C@@H](CC(N)=O)C(=O)N[C@H](C(=O)N[C@@H](C)C(=O)N1CCC[C@H]1C(=O)N1CCC[C@H]1C(=O)N[C@H](C(=O)N[C@@H](CC(N)=O)C(=O)N[C@H](C(=O)NCC(=O)N[C@@H](CO)C(=O)N[C@@H](CC(N)=O)C(=O)NCC(=O)N1C[C@H](O)C[C@H]1C(N)=O)C(C)C)[C@@H](C)O)C(C)C)[C@@H](C)O` [compound 37] ({C20 diacid-γGlu}-KCNTATCTVARLAHQIYQFTDKDKDNVAPPTNVGSNG[Hyp]-NH2; disulfide 2-7), the EC50 in test [1] is 0.01 nM; in test [2], more than 5000 nM.
Taken in the same sequence, the figures for `CC[C@H](C)[C@H](NC(=O)[C@H](CCC(N)=O)NC(=O)[C@H](Cc1c[nH]cn1)NC(=O)[C@H](C)NC(=O)[C@H](CC(C)C)NC(=O)[C@H](CCCNC(=N)N)NC(=O)[C@H](CC(N)=O)NC(=O)[C@@H](NC(=O)[C@@H](NC(=O)[C@@H]1CSSC[C@H](NC(=O)[C@H](CCCCN)NC(=O)CC[C@H](NC(=O)CCCCCCCCCCCCCCCCCCC(=O)O)C(=O)O)C(=O)N[C@@H](CC(N)=O)C(=O)N[C@@H]([C@@H](C)O)C(=O)N[C@@H](C)C(=O)N[C@@H]([C@@H](C)O)C(=O)N1)[C@@H](C)O)C(C)C)C(=O)N[C@@H](Cc1ccc(O)cc1)C(=O)N[C@@H](CCC(N)=O)C(=O)N[C@@H](Cc1ccccc1)C(=O)N[C@H](C(=O)N[C@@H](CC(=O)O)C(=O)N[C@@H](CCCCN)C(=O)N[C@@H](CC(=O)O)C(=O)N[C@@H](CCCCN)C(=O)N[C@@H](CC(=O)O)C(=O)N[C@@H](CC(N)=O)C(=O)N[C@H](C(=O)N[C@@H](C)C(=O)N1CCC[C@H]1C(=O)N1CCC[C@H]1C(=O)N[C@H](C(=O)N[C@@H](CC(N)=O)C(=O)N[C@H](C(=O)NCC(=O)N[C@@H](CO)C(=O)N[C@@H](CC(N)=O)C(=O)NCC(=O)N1C[C@H](O)C[C@H]1C(N)=O)C(C)C)[C@@H](C)O)C(C)C)[C@@H](C)O` [compound 38] ({C20 diacid-γGlu}-KCNTATCTVNRLAHQIYQFTDKDKDNVAPPTNVGSNG[Hyp]-NH2; disulfide 2-7) were 0.01 nM and more than 5000 nM.
In the case of `CC[C@H](C)[C@H](NC(=O)[C@H](CCC(N)=O)NC(=O)[C@H](Cc1c[nH]cn1)NC(=O)[C@H](C)NC(=O)[C@H](CC(C)C)NC(=O)[C@H](CCCNC(=N)N)NC(=O)[C@H](CCC(N)=O)NC(=O)[C@@H](NC(=O)[C@@H](NC(=O)[C@@H]1CSSC[C@H](NC(=O)[C@H](CCCNC(=N)N)NC(=O)CC[C@H](NC(=O)CCCCCCCCCCCCCCCCCCC(=O)O)C(=O)O)C(=O)N[C@@H](CC(N)=O)C(=O)N[C@@H]([C@@H](C)O)C(=O)N[C@@H](C)C(=O)N[C@@H]([C@@H](C)O)C(=O)N1)[C@@H](C)O)C(C)C)C(=O)N[C@@H](Cc1ccc(O)cc1)C(=O)N[C@@H](CCC(N)=O)C(=O)N[C@@H](Cc1ccccc1)C(=O)N[C@H](C(=O)N[C@@H](CC(=O)O)C(=O)N[C@@H](CCCCN)C(=O)N[C@@H](CC(=O)O)C(=O)N[C@@H](CCCCN)C(=O)N[C@@H](CC(=O)O)C(=O)N[C@@H](CC(N)=O)C(=O)N[C@H](C(=O)N[C@@H](C)C(=O)N1CCC[C@H]1C(=O)N1CCC[C@H]1C(=O)N[C@H](C(=O)N[C@@H](CC(N)=O)C(=O)N[C@H](C(=O)NCC(=O)N[C@@H](CO)C(=O)N[C@@H](CC(N)=O)C(=O)NCC(=O)N1C[C@H](O)C[C@H]1C(N)=O)C(C)C)[C@@H](C)O)C(C)C)[C@@H](C)O` [compound 39] ({C20 diacid-γGlu}-RCNTATCTVQRLAHQIYQFTDKDKDNVAPPTNVGSNG[Hyp]-NH2; disulfide 2-7), the results for the EC50 in test [1] and in test [2] were 0.01 nM and more than 5000 nM, respectively.
Consider `CC[C@H](C)[C@H](NC(=O)[C@H](CCC(N)=O)NC(=O)[C@H](CCC(=O)O)NC(=O)[C@H](C)NC(=O)[C@H](CC(C)C)NC(=O)[C@H](CCCNC(=N)N)NC(=O)[C@H](CCC(N)=O)NC(=O)[C@@H](NC(=O)[C@@H](NC(=O)[C@@H]1CSSC[C@H](NC(=O)[C@@H](N)CCCCN)C(=O)N[C@@H](CC(N)=O)C(=O)N[C@@H]([C@@H](C)O)C(=O)N[C@@H](C)C(=O)N[C@@H]([C@@H](C)O)C(=O)N1)[C@@H](C)O)C(C)C)C(=O)N[C@@H](Cc1ccc(O)cc1)C(=O)N[C@@H](CCC(N)=O)C(=O)N[C@@H](Cc1ccccc1)C(=O)N[C@H](C(=O)N[C@@H](CC(=O)O)C(=O)N[C@@H](CCCCN)C(=O)N[C@@H](CC(=O)O)C(=O)N[C@@H](CCCCN)C(=O)N[C@@H](CCCCNC(=O)COCCOCCNC(=O)COCCOCCNC(=O)CC[C@H](NC(=O)CCCCCCCCCCCCCCCCCCC(=O)O)C(=O)O)C(=O)N[C@@H](CC(N)=O)C(=O)N[C@H](C(=O)N[C@@H](C)C(=O)N1CCC[C@H]1C(=O)N1CCC[C@H]1C(=O)N[C@H](C(=O)N[C@@H](CC(N)=O)C(=O)N[C@H](C(=O)NCC(=O)N[C@@H](CO)C(=O)N[C@@H](CC(N)=O)C(=O)NCC(=O)N1C[C@H](O)C[C@H]1C(N)=O)C(C)C)[C@@H](C)O)C(C)C)[C@@H](C)O` [compound 40] (H-KCNTATCTVQRLAEQIYQFTDKDKK([AEEA-AEEA-γGlu-C20 diacid])NVAPPTNVGSNG[Hyp]-NH2; disulfide 2-7; N-terminus assumed), for which the EC50 was 0.01 nM in test [1] and more than 5000 nM in test [2].
